Data taken from US5981592A, “Method and composition for treating cystic fibrosis” (priority 1998, dated 1999).

Assays:
[1] = tested on: white cell count in the blood; conditions: in vivo; cited from earlier work
[2] = tested on: colon cancer; conditions: cited from earlier work; for prevention of cancer of the large bowel and rectum: causal relationship with use identified by the reference
[3] = tested on: gastric mucosa; conditions: in vivo; cited from earlier work
[4] = tested on: neutrophil traffic; assay: effect on neutrophil traffic in the normal rat; type: in vivo; conditions: for neutrophil adhesiveness and extravasation: post-capillary venules and surrounding tissue
[5] = tested on: epithelial cells of the distal colon (crypts); assay: Labelling Index (LI) of proliferating crypt cells in distal colon, BrD-U staining; type: in vivo, Female Sprague-Dewley rats; conditions: rats, 30 days; for LI (Labelling Index): 6.3 mg/Kg/day, distal colon, control 12.62, P<0.05
From the text: The term "effective to elicit a chemoprotective effect" was used herein means that abnormal cell proliferation is reduced. A method of measuring cell proliferation in animals is the Labelling Index (LI). Epithelial cells of the distal colon are stained using a histologic biomarker of proliferating cells. Microscopic examination allows for quantification of the proportion of proliferating cells in the crypts. A high proportion of proliferating cells or LI, particularly in the upper portion of the crypts, is an indicator of abnormal cell proliferation. A reduction in the LI of at least 10 to 50%, preferably at least 30% is associated with the reduction of abnormal cell proliferation. Of course, the particular R-NSAID used must be enantiomerically stable in the animal species being tested.
(§1) A study was performed to compare the R- and S-isomers of flurbiprofen with regard to their effect on the Labelling Index (LI) and duodenal ulceration in contrast to the S-isomer.
(§2) Female Sprague-Dewley rats were randomized to 4 groups (N=10) receiving 6.3 mg/Kg/day R-flurbiprofen; 6.3 mg/Kg/day S-flurbiprofen; 12.5 mg/Kg/day racemic flurbiprofen; or vehicle control. Fasted rats were sacrificed after 30 days. Small bowel ulcer score was recorded in each group.
The LI is calculated using a histologic biomarker of proliferating cells, a monoclonal antibody to Bromo-deoxyuridine (BrD-U). Intestinal crypts are examined microscopically in longitudinal sections such that proliferating cells are identified and quantified as a proportion of total crypt cells. An LI was determined for each rat using BrD-U staining to identify the proportion of mitotic cells in the crypt of Leiberkuhn. Twelve well-oriented crypts (distal colon) were examined in each rat.

[6] = tested on: cystic fibrosis lung disease; conditions: cited from earlier work
[7] = tested on: colon cancer; conditions: cited from earlier work; for survival among colon cancer patients: 5-fluorouracil alone or with levamisole
[8] = tested on: small bowel; design: species or system Female Sprague-Dewley rats; conditions: rat, in vivo
Protocol: The term "with reduced gastrointestinal toxicity" as used herein means that the administration of the particular R-NSAID is less ulcerogenic to the gastrointestinal tract of the human or other mammal than the corresponding racemate or S-NSAID. One measure of ulcerogenic activity is the small bowel ulcer score. A rat is treated daily through oral administration of the R-NSAID for 30 days. At the end of the 30 days, the rat is sacrificed and the intestines removed. Lesions of appreciable size in the mucosa are measured. A cumulative score equaling the sum of the diameters of the ulcers measured are reported as the ulcer score. An ulcer score essentially equal to that of a control rat, or a reduction of the ulcer score of at least 50 to 90%, preferably at least 80%, as compared to the corresponding S-NSAID or racemate, is considered a reduction in gastrointestinal toxicity.
as §1, §2

[9] = tested on: neutrophils; conditions: high doses; stated as believed; cited from earlier work

COc1ccc2c(c1)c(CC(=O)O)c(C)n2C(=O)c1ccc(Cl)cc1 [indomethacin]
leukopenia/agranulocytosis syndrome [1]: leukopenia/agranulocytosis syndrome has been described
prevention of cancer of the large bowel and rectum [2]: prevention of cancer of the large bowel and rectum
damage and irritation of the gastric mucosa [3]: cause damage and irritation of the gastric mucosa

C[C@H](C(=O)O)c1ccc(-c2ccccc2)c(F)c1 [S-flurbiprofen]
neutrophil adhesiveness and extravasation [4]: produce neutrophil adhesiveness in the post-capillary venules and extravasation of neutrophils into the surrounding tissue
LI (Labelling Index) [5]: 9.09

CC(C)Cc1ccc([C@H](C)C(=O)O)cc1 [S(+) ibuprofen]
gastrointestinal side effects ([6]; human, in vivo): severely limit the chronic use of this therapy

c1ccc([C@H]2CN3CCSC3=N2)cc1 [levamisole]
survival among colon cancer patients [7]: improved survival rate
T-cell count / immune system ([7]; human, in vivo): stimulate the immune system and increase T-cell count

C[C@@H](C(=O)O)c1ccc(-c2ccccc2)c(F)c1 [R-flurbiprofen]
effect on neutrophil traffic relative to the S-enantiomer [4]: as effective as the S-enantiomer
neutrophil adhesiveness and extravasation [4]: produce neutrophil adhesiveness in the post-capillary venules and extravasation of neutrophils into the surrounding tissue
ulcerogenicity, in words [8]: much less ulcerogenic than its S-enantiomer
cell proliferation in the distal colon, in words [5]: suppresses cell proliferation in the distal colon
LI (Labelling Index) [5]: 8.71

CN1C(C(=O)Nc2ccccn2)=C(O)c2ccccc2S1(=O)=O [peroxicam]
prevention of cancer of the large bowel and rectum [2]: prevention of cancer of the large bowel and rectum

CC(C)Cc1ccc(C(C)C(=O)O)cc1 (racemic) [racemic ibuprofen]
influx of neutrophils to the alveolar crevices [9]: inhibits the influx of neutrophils to the alveolar crevices
leukopenia/agranulocytosis syndrome [1]: leukopenia/agranulocytosis syndrome has been described
progression of the lung disease ([6]; high doses, four-year period, cystic fibrosis patients): slows progression of the lung disease
side effects at high doses ([6]; human, in vivo): conjunctivitis and epistaxis

CC(C(=O)O)c1ccc(-c2ccccc2)c(F)c1 (racemic) [racemic flurbiprofen]
LI, result in words ([5]; equal-molar doses of both enantiomers (racemic 12.5 mg/Kg/day), relative to R- and S-flurbiprofen groups): further reduced

CC(C(=O)O)c1cccc(C(=O)c2ccccc2)c1 (stereo not drawn) [ketoprofen]
leukopenia/agranulocytosis syndrome [1]: leukopenia/agranulocytosis syndrome has been described

CC(=O)Oc1ccccc1C(=O)O [aspirin]
protection against colon cancer ([2]; epidemiologic survey): confer protection against colon cancer
damage and irritation of the gastric mucosa [3]: cause damage and irritation of the gastric mucosa

CC1=C(CC(=O)O)c2cc(F)ccc2/C1=C\c1ccc([S+](C)[O-])cc1 (stereo not drawn) [sulindac]
prevention of cancer of the large bowel and rectum [2]: prevention of cancer of the large bowel and rectum

O=c1[nH]cc(F)c(=O)[nH]1 [5-fluorouracil]
survival among colon cancer patients [7]: No improvement in survival
